Measurements: ChEMBL document CHEMBL1201861, “Genomics of Drug Sensitity in Cancer screening data, Wellcome Trust Sanger Institute”

Key:
Test in all cases: cells
DOK = format: functional, cell-based; conditions: Homo sapiens;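 note: cell viability assay read-out, values reflect inhibition of cell growth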
Description: SANGER: Inhibition of human DOK cell growth in a cell viability assay.

EW-16 = format: functional, cell-based, Homo sapiens; conditions: Homo sapiens, EW-16;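 note: growth inhibition of human EW-16 cells, read out as cell viability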
Description: SANGER: Inhibition of human EW-16 cell growth in a cell viability assay.

KLE = format: functional, cell-based; conditions: Homo sapiens;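 note: growth inhibition of human KLE cells, read out with a cell viability assay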
Description: SANGER: Inhibition of human KLE cell growth in a cell viability assay.

D-247MG = format: functional, cell-based; conditions: Homo sapiens
Description: SANGER: Inhibition of human D-247MG cell growth in a cell viability assay.

EW-18 = format: functional, cell-based, Homo sapiens; conditions: Homo sapiens, EW-18; read-out: IC50;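 note: growth inhibition of EW-18 cells, read out by a cell viability assay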
Description: SANGER: Inhibition of human EW-18 cell growth in a cell viability assay.

SW872 = format: functional, cell-based, Homo sapiens; conditions: Homo sapiens, SW872;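 note: growth inhibition of SW872 cells, read out by a viability assay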
Description: SANGER: Inhibition of human SW872 cell growth in a cell viability assay.

NCI-H1770 = format: functional, cell-based, Homo sapiens; conditions: Homo sapiens, NCI-H1770;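 note: growth inhibition of NCI-H1770 cells determined with a viability readout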
Description: SANGER: Inhibition of human NCI-H1770 cell growth in a cell viability assay.

A388 = format: functional, cell-based; conditions: Homo sapiens;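 note: growth inhibition of human A388 cells, read out with a cell viability assay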
Description: SANGER: Inhibition of human A388 cell growth in a cell viability assay.

LS-513 = format: functional, cell-based, Homo sapiens; conditions: Homo sapiens, LS-513
Description: SANGER: Inhibition of human LS-513 cell growth in a cell viability assay.

ACN = format: functional, cell-based, Homo sapiens; conditions: Homo sapiens, ACN;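 note: growth inhibition of the human ACN cell line, read out via cell viability testing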
Description: SANGER: Inhibition of human ACN cell growth in a cell viability assay.

U-118-MG = format: functional, cell-based; conditions: Homo sapiens
Description: SANGER: Inhibition of human U-118-MG cell growth in a cell viability assay.

no-10 = format: functional, cell-based, Homo sapiens; conditions: Homo sapiens;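 note: growth inhibition of no-10 cells, read out with a cell viability assay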
Description: SANGER: Inhibition of human no-10 cell growth in a cell viability assay.

NCI-H1623 = format: functional, cell-based; conditions: Homo sapiens;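 note: cell viability assay used as the read-out for growth inhibition of NCI-H1623 cells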
Description: SANGER: Inhibition of human NCI-H1623 cell growth in a cell viability assay.

BV-173 = format: functional, cell-based, Homo sapiens; conditions: Homo sapiens, BV-173
Description: SANGER: Inhibition of human BV-173 cell growth in a cell viability assay.

DOHH-2 = format: functional, cell-based, Homo sapiens; conditions: Homo sapiens, DOHH-2;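 note: growth inhibition of human DOHH-2 cells, read out with a cell viability assay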
Description: SANGER: Inhibition of human DOHH-2 cell growth in a cell viability assay.

D-502MG = format: functional, cell-based, Homo sapiens; conditions: Homo sapiens, D-502MG
Description: SANGER: Inhibition of human D-502MG cell growth in a cell viability assay.

SW982 = format: functional, cell-based; conditions: Homo sapiens;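 note: growth inhibition of SW982 cells, read out with a cell viability assay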
Description: SANGER: Inhibition of human SW982 cell growth in a cell viability assay.

KGN = format: functional, cell-based, Homo sapiens; conditions: Homo sapiens, KGN;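 note: growth inhibition of KGN cells, read out with a cell viability assay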
Description: SANGER: Inhibition of human KGN cell growth in a cell viability assay.

QIMR-WIL = format: functional, cell-based, Homo sapiens; conditions: Homo sapiens, QIMR-WIL;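 note: growth inhibition of QIMR-WIL cells, read out with a cell viability assay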
Description: SANGER: Inhibition of human QIMR-WIL cell growth in a cell viability assay.

NCI-H69 = format: functional, cell-based, Homo sapiens; conditions: Homo sapiens, NCI-H69;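 note: growth inhibition of the cell line, read out with a cell viability assay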
Description: SANGER: Inhibition of human NCI-H69 cell growth in a cell viability assay.

KINGS-1 = format: functional, cell-based, Homo sapiens; conditions: Homo sapiens, KINGS-1;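 note: cell viability assay measuring suppression of KINGS-1 cell growth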
Description: SANGER: Inhibition of human KINGS-1 cell growth in a cell viability assay.

TE-8 = format: functional, cell-based, Homo sapiens; conditions: Homo sapiens, TE-8;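 note: growth inhibition of TE-8 cells, measured with a cell viability readout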
Description: SANGER: Inhibition of human TE-8 cell growth in a cell viability assay.

TE-9 = format: functional, cell-based, Homo sapiens; conditions: Homo sapiens, TE-9;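 note: cell growth inhibition, measured with a cell viability readout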
Description: SANGER: Inhibition of human TE-9 cell growth in a cell viability assay.

IST-MEL1 = format: functional, cell-based, Homo sapiens; conditions: Homo sapiens, IST-MEL1;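 note: growth inhibition of the cell line, read out with a cell viability assay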
Description: SANGER: Inhibition of human IST-MEL1 cell growth in a cell viability assay.

BB30-HNC = format: functional, cell-based, Homo sapiens; conditions: Homo sapiens, BB30-HNC;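 note: growth inhibition of the cultured cell line, read out by a cell viability assay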
Description: SANGER: Inhibition of human BB30-HNC cell growth in a cell viability assay.

NCI-H1395 = format: functional, cell-based, Homo sapiens; conditions: Homo sapiens, NCI-H1395;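 note: cell viability assay read-out quantifying reduced proliferation of human NCI-H1395 cells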
Description: SANGER: Inhibition of human NCI-H1395 cell growth in a cell viability assay.

TE-5 = format: functional, cell-based, Homo sapiens; conditions: Homo sapiens, TE-5;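 note: inhibition of cell growth, read out by a cell viability assay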
Description: SANGER: Inhibition of human TE-5 cell growth in a cell viability assay.

IST-SL1 = format: functional, cell-based, Homo sapiens; conditions: Homo sapiens, IST-SL1;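 note: growth inhibition of human IST-SL1 cells, read out with a cell viability assay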
Description: SANGER: Inhibition of human IST-SL1 cell growth in a cell viability assay.

MMAC-SF = format: functional, cell-based; conditions: Homo sapiens;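 note: growth inhibition of human MMAC-SF cells, read out with a cell viability assay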
Description: SANGER: Inhibition of human MMAC-SF cell growth in a cell viability assay.

EW-11 = format: functional, cell-based, Homo sapiens; conditions: Homo sapiens, EW-11;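 note: growth inhibition of human EW-11 cells, measured with a cell viability assay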
Description: SANGER: Inhibition of human EW-11 cell growth in a cell viability assay.

ES7 = format: functional, cell-based, Homo sapiens; conditions: Homo sapiens, ES7;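 note: growth inhibition of cultured human ES7 cells, read out as cell viability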
Description: SANGER: Inhibition of human ES7 cell growth in a cell viability assay.

NCI-H1581 = format: functional, cell-based, Homo sapiens; conditions: Homo sapiens, NCI-H1581;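 note: cell growth inhibition read out by a viability assay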
Description: SANGER: Inhibition of human NCI-H1581 cell growth in a cell viability assay.

EM-2 = format: functional, cell-based, Homo sapiens; conditions: Homo sapiens, EM-2;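 note: growth inhibition of EM-2 cells, read out with a cell viability assay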
Description: SANGER: Inhibition of human EM-2 cell growth in a cell viability assay.

MPP-89 = format: functional, cell-based, Homo sapiens; conditions: Homo sapiens, MPP-89;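 note: growth inhibition of human MPP-89 cells, read out with a cell viability assay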
Description: SANGER: Inhibition of human MPP-89 cell growth in a cell viability assay.

LAN-6 = format: functional, cell-based, Homo sapiens; conditions: Homo sapiens, LAN-6;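 note: growth inhibition of LAN-6 cells, determined with a cell viability assay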
Description: SANGER: Inhibition of human LAN-6 cell growth in a cell viability assay.

OCI-AML2 = format: functional, cell-based, Homo sapiens; conditions: Homo sapiens, OCI-AML2;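 note: growth inhibition of OCI-AML2 cells, read out with a cell viability assay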
Description: SANGER: Inhibition of human OCI-AML2 cell growth in a cell viability assay.

A704 = format: functional, cell-based; conditions: Homo sapiens;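 note: growth inhibition of human A704 cells, read out with a cell viability assay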
Description: SANGER: Inhibition of human A704 cell growth in a cell viability assay.

NCI-H1092 = format: functional, cell-based, Homo sapiens; conditions: Homo sapiens, NCI-H1092;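 note: cell growth inhibition measured with a cell viability assay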
Description: SANGER: Inhibition of human NCI-H1092 cell growth in a cell viability assay.

HDLM-2 = format: functional, cell-based, Homo sapiens; conditions: Homo sapiens, HDLM-2;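 note: cell viability assay measuring suppression of HDLM-2 proliferation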
Description: SANGER: Inhibition of human HDLM-2 cell growth in a cell viability assay.

OCUB-M = format: functional, cell-based; conditions: Homo sapiens;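 note: growth inhibition of the cancer cell line, read out through a cell viability assay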
Description: SANGER: Inhibition of human OCUB-M cell growth in a cell viability assay.

SK-UT-1 = format: functional, cell-based, Homo sapiens; conditions: Homo sapiens, SK-UT-1;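 note: growth inhibition of SK-UT-1 cells, measured by a cell viability assay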
Description: SANGER: Inhibition of human SK-UT-1 cell growth in a cell viability assay.

GAK = format: functional, cell-based, Homo sapiens; conditions: Homo sapiens, GAK;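 note: cell growth inhibition read out by a cell viability assay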
Description: SANGER: Inhibition of human GAK cell growth in a cell viability assay.

NCI-H1838 = format: functional, cell-based, Homo sapiens; conditions: Homo sapiens, NCI-H1838;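 note: growth inhibition of NCI-H1838 cells, determined with a cell viability readout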
Description: SANGER: Inhibition of human NCI-H1838 cell growth in a cell viability assay.

NB5 = format: functional, cell-based, Homo sapiens; conditions: Homo sapiens, NB5;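 note: growth inhibition of NB5 cells, read out as cell viability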
Description: SANGER: Inhibition of human NB5 cell growth in a cell viability assay.

MSTO-211H = format: functional, cell-based, Homo sapiens; conditions: Homo sapiens, MSTO-211H
Description: SANGER: Inhibition of human MSTO-211H cell growth in a cell viability assay.

DU-4475 = format: functional, cell-based, Homo sapiens; conditions: Homo sapiens, DU-4475
Description: SANGER: Inhibition of human DU-4475 cell growth in a cell viability assay.

no-11 = format: functional, cell-based, Homo sapiens; conditions: Homo sapiens;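 note: growth inhibition of human NO-11 cells, read out with a cell viability assay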
Description: SANGER: Inhibition of human no-11 cell growth in a cell viability assay.

HEL = format: functional, cell-based, Homo sapiens; conditions: Homo sapiens, HEL;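 note: growth inhibition of HEL cells, read out with a cell viability assay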
Description: SANGER: Inhibition of human HEL cell growth in a cell viability assay.

KY821 = format: functional, cell-based, Homo sapiens; conditions: Homo sapiens, KY821;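 note: growth inhibition of human KY821 cells, read out by a cell viability assay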
Description: SANGER: Inhibition of human KY821 cell growth in a cell viability assay.

LC-2-ad = format: functional, cell-based, Homo sapiens; conditions: Homo sapiens, LC-2-ad;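 note: growth inhibition of human LC-2-ad cells, read out with a cell viability assay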
Description: SANGER: Inhibition of human LC-2-ad cell growth in a cell viability assay.

NCI-H226 = format: functional, cell-based, Homo sapiens; conditions: Homo sapiens, NCI-H226;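 note: cell viability read-out used to gauge growth inhibition of the cells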
Description: SANGER: Inhibition of human NCI-H226 cell growth in a cell viability assay.

HT = format: functional, cell-based, Homo sapiens; conditions: Homo sapiens, HT
Description: SANGER: Inhibition of human HT cell growth in a cell viability assay.

Q: `O=S(=O)(O)c1ccc2cc(/N=N/c3cc(S(=O)(=O)O)c4cccnc4c3O)ccc2c1` was tested. Which IC50 (DOK) did it give?
A: > 16 µM

Q: And the IC50 (EW-16)?
A: > 16 µM

Q: What about the IC50 (KLE) of the same molecule?
A: > 16 µM

Q: And the IC50 (D-247MG)?
A: > 16 µM

Q: And the IC50 (EW-18)?
A: > 16 µM

Q: What about the IC50 (SW872) of the same molecule?
A: > 16 µM

Q: And the IC50 (NCI-H1770)?
A: > 16 µM

Q: And the IC50 (A388)?
A: > 16 µM

Q: What about the IC50 (LS-513) of the same molecule?
A: > 16 µM

Q: And the IC50 (ACN)?
A: > 16 µM

Q: And the IC50 (U-118-MG)?
A: > 16 µM

Q: And the IC50 (no-10)?
A: > 16 µM

Q: What about the IC50 (NCI-H1623) of the same molecule?
A: > 16 µM

Q: What about the IC50 (BV-173) of the same molecule?
A: > 16 µM

Q: What about the IC50 (DOHH-2) of the same molecule?
A: > 16 µM

Q: And the IC50 (D-502MG)?
A: > 16 µM

Q: What about the IC50 (SW982) of the same molecule?
A: > 16 µM

Q: What about the IC50 (KGN) of the same molecule?
A: > 16 µM

Q: What about the IC50 (QIMR-WIL) of the same molecule?
A: > 16 µM

Q: And the IC50 (NCI-H69)?
A: > 16 µM

Q: And the IC50 (KINGS-1)?
A: > 16 µM

Q: What about the IC50 (TE-8) of the same molecule?
A: > 16 µM

Q: And the IC50 (TE-9)?
A: > 16 µM

Q: And the IC50 (IST-MEL1)?
A: > 16 µM

Q: What about the IC50 (BB30-HNC) of the same molecule?
A: > 16 µM

Q: What about the IC50 (NCI-H1395) of the same molecule?
A: > 16 µM

Q: What about the IC50 (TE-5) of the same molecule?
A: > 16 µM

Q: What about the IC50 (IST-SL1) of the same molecule?
A: > 16 µM

Q: And the IC50 (MMAC-SF)?
A: > 16 µM

Q: What about the IC50 (EW-11) of the same molecule?
A: > 16 µM

Q: And the IC50 (ES7)?
A: > 16 µM

Q: What about the IC50 (NCI-H1581) of the same molecule?
A: > 16 µM

Q: What about the IC50 (EM-2) of the same molecule?
A: > 16 µM

Q: And the IC50 (MPP-89)?
A: > 16 µM

Q: And the IC50 (LAN-6)?
A: > 16 µM

Q: And the IC50 (OCI-AML2)?
A: > 16 µM

Q: What about the IC50 (A704) of the same molecule?
A: > 16 µM

Q: What about the IC50 (NCI-H1092) of the same molecule?
A: > 16 µM

Q: And the IC50 (HDLM-2)?
A: > 16 µM

Q: What about the IC50 (OCUB-M) of the same molecule?
A: > 16 µM

Q: What about the IC50 (SK-UT-1) of the same molecule?
A: > 16 µM

Q: And the IC50 (GAK)?
A: > 16 µM

Q: And the IC50 (NCI-H1838)?
A: > 16 µM

Q: What about the IC50 (NB5) of the same molecule?
A: > 16 µM

Q: What about the IC50 (MSTO-211H) of the same molecule?
A: > 16 µM

Q: What about the IC50 (DU-4475) of the same molecule?
A: > 16 µM

Q: What about the IC50 (no-11) of the same molecule?
A: > 16 µM

Q: And the IC50 (HEL)?
A: > 16 µM

Q: What about the IC50 (KY821) of the same molecule?
A: > 16 µM

Q: And the IC50 (LC-2-ad)?
A: > 16 µM

Q: What about the IC50 (NCI-H226) of the same molecule?
A: > 16 µM

Q: And the IC50 (HT)?
A: > 16 µM

Q: What does the source list for `COC(=O)[C@H](CCSC)NC(=O)c1ccc(NC[C@@H](N)CS)cc1-c1ccccc1`?
A: IC50 (DOK): > 1.02 µM; IC50 (EW-16): > 1.02 µM; IC50 (KLE): > 1.02 µM; IC50 (D-247MG): > 1.02 µM; IC50 (EW-18): > 1.02 µM; IC50 (SW872): > 1.02 µM; IC50 (NCI-H1770): > 1.02 µM; IC50 (A388): > 1.02 µM; IC50 (LS-513): > 1.02 µM; IC50 (ACN): > 1.02 µM; IC50 (U-118-MG): > 1.02 µM; IC50 (no-10): > 1.02 µM; IC50 (NCI-H1623): > 1.02 µM; IC50 (BV-173): > 1.02 µM; IC50 (DOHH-2): > 1.02 µM; IC50 (D-502MG): > 1.02 µM; IC50 (SW982): > 1.02 µM; IC50 (KGN): > 1.02 µM; IC50 (QIMR-WIL): > 1.02 µM; IC50 (NCI-H69): > 1.02 µM; IC50 (KINGS-1): > 1.02 µM; IC50 (TE-8): > 1.02 µM; IC50 (TE-9): > 1.02 µM; IC50 (IST-MEL1): > 1.02 µM; IC50 (BB30-HNC): > 1.02 µM; IC50 (NCI-H1395): > 1.02 µM; IC50 (TE-5): > 1.02 µM; IC50 (IST-SL1): > 1.02 µM; IC50 (MMAC-SF): > 1.02 µM; IC50 (EW-11): > 1.02 µM; IC50 (ES7): > 1.02 µM; IC50 (NCI-H1581): > 1.02 µM; IC50 (EM-2): > 1.02 µM; IC50 (MPP-89): > 1.02 µM; IC50 (LAN-6): > 1.02 µM; IC50 (OCI-AML2): > 1.02 µM; IC50 (A704): > 1.02 µM; IC50 (NCI-H1092): > 1.02 µM; IC50 (HDLM-2): > 1.02 µM; IC50 (OCUB-M): > 1.02 µM; IC50 (SK-UT-1): > 1.02 µM; IC50 (GAK): > 1.02 µM; IC50 (NCI-H1838): > 1.02 µM; IC50 (NB5): > 1.02 µM; IC50 (MSTO-211H): > 1.02 µM; IC50 (DU-4475): > 1.02 µM; IC50 (no-11): > 1.02 µM; IC50 (HEL): > 1.02 µM; IC50 (KY821): > 1.02 µM; IC50 (LC-2-ad): > 1.02 µM; IC50 (NCI-H226): > 1.02 µM; IC50 (HT): > 1.02 µM
